Assay results: US10105357B2, “Indication of antibiotic drugs for preparation of cancer inhibition pharmaceutical composition” (LAUNX BIOMEDICAL CO., LTD., priority 2014, dated 2018)
Where a name gives a salt, the structure may show the parent alone. Read-outs that look alike come from different tables or passages of the source.

Columns and labels:
Format in all cases: cell-based, human
[1] = test system: MKN-45 (Gastric Adenocarcinoma); assay: Cell viability analysis, gastric cancer MKN-45; conditions: Homo sapiens
[2] = test system: LoVo (Colorectal Adenocarcinoma); assay: Cell viability analysis, colon cancer LoVo; conditions: Homo sapiens, LoVo
[3] = test system: HepG2 (Hepatocellular Carcinoma); assay: Cell viability analysis, hepatic cancer HepG2; conditions: Homo sapiens
[4] = test system: A375 (Amelanotic Melanoma); assay: Cell viability analysis, skin cancer A375; conditions: Homo sapiens
[5] = test system: A549 (Lung Adenocarcinoma); assay: Cell viability analysis, lung cancer A549; conditions: Homo sapiens
[6] = test system: TSGH-8301 (Urinary Bladder Carcinoma); assay: Cell viability analysis, bladder cancer TSGH-8301; conditions: Homo sapiens
[7] = test system: HL-60 (Acute Promyelocytic Leukemia); assay: Cell viability analysis, leukemia HL-60; conditions: Homo sapiens
[8] = test system: HeLa (Cervix Adenocarcinoma); assay: Cell viability analysis, cervical cancer HeLa; conditions: Homo sapiens, HeLa
[9] = test system: MCF7 (Mammary Gland, Adenocarcinoma); assay: Cell viability analysis, breast cancer MCF7; conditions: Homo sapiens
[10] = test system: AGS (Gastric Adenocarcinoma); assay: Cell viability analysis, gastric cancer AGS; conditions: Homo sapiens
[11] = test system: HI650 (Lung Adenocarcinoma); assay: Cell viability analysis, lung cancer HI650; conditions: Homo sapiens
[12] = test system: PC3 (p53−) (Prostate Adenocarcinoma); assay: Cell viability analysis, prostate cancer PC3; conditions: Homo sapiens, 72 h
[13] = MKN-45, 72 h, read-out: cell viability (survival rate), MKN-45, drug 10 μM, 72 hours, WST-1, OD450 nm
[14] = 72 h, read-out: cell viability (survival rate), LoVo, drug 10 μM, 72 hours, WST-1, OD450 nm
[15] = HepG2, 72 h, read-out: cell viability (survival rate), HepG2, drug 10 μM, 72 hours, WST-1, OD450 nm
[16] = A-375, 72 h, read-out: cell viability (survival rate), A375, drug 10 μM, 72 hours, WST-1, OD450 nm
[17] = A549, 72 h, read-out: cell viability (survival rate), A549, drug 10 μM, 72 hours, WST-1, OD450 nm
[18] = 72 h, read-out: cell viability (survival rate), TSGH, drug 10 μM, 72 hours, WST-1, OD450 nm
[19] = HL-60, 72 h, read-out: cell viability (survival rate), HL-60, drug 10 μM, 72 hours, WST-1, OD450 nm
[20] = 72 h, read-out: cell viability (survival rate), HeLa, drug 10 μM, 72 hours, WST-1, OD450 nm
[21] = MCF7, 72 h, read-out: cell viability (survival rate), MCF7, drug 10 μM, 72 hours, WST-1, OD450 nm
[22] = 72 h, read-out: cell viability (survival rate), AGS, drug 10 μM, 72 hours, WST-1, OD450 nm
[23] = NCI-H1650, 72 h, read-out: cell viability (survival rate), H1650, drug 10 μM, 72 hours, WST-1, OD450 nm
[24] = read-out: cell viability (survival rate), PC3, drug 10 μM, 72 hours, WST-1, OD450 nm
[25] = MKN-45, 72 h, drug 10 μM, 72 hours, WST-1, OD450 nm, read-out: cell viability (survival rate), MKN-45
[26] = HepG2, 72 h, drug 10 μM, 72 hours, WST-1, OD450 nm, read-out: cell viability (survival rate), HepG2
[27] = A-375, 72 h, drug 10 μM, 72 hours, WST-1, OD450 nm, read-out: cell viability (survival rate), A375
[28] = drug 10 μM, 72 hours, WST-1, OD450 nm, read-out: cell viability (survival rate), PC3
[29] = A549, 72 h, drug 10 μM, 72 hours, WST-1, OD450 nm, read-out: cell viability (survival rate), A549
[30] = 72 h, drug 10 μM, 72 hours, WST-1, OD450 nm, read-out: cell viability (survival rate), TSGH
[31] = HL-60, 72 h, drug 10 μM, 72 hours, WST-1, OD450 nm, read-out: cell viability (survival rate), HL-60
[32] = 72 h, drug 10 μM, 72 hours, WST-1, OD450 nm, read-out: cell viability (survival rate), HeLa
[33] = MCF7, 72 h, drug 10 μM, 72 hours, WST-1, OD450 nm, read-out: cell viability (survival rate), MCF7
[34] = 72 h, drug 10 μM, 72 hours, WST-1, OD450 nm, read-out: cell viability (survival rate), AGS
[35] = NCI-H1650, 72 h, drug 10 μM, 72 hours, WST-1, OD450 nm, read-out: cell viability (survival rate), H1650

Row | Compound | viability at 10 µM [1, 13] [%] | viability at 10 µM [2, 14] [%] | viability at 10 µM [3, 15] [%] | viability at 10 µM [4, 16] [%] | viability at 10 µM [5, 17] [%] | viability at 10 µM [6, 18] [%] | viability at 10 µM [7, 19] [%] | viability at 10 µM [8, 20] [%] | viability at 10 µM [9, 21] [%] | viability at 10 µM [10, 22] [%] | viability at 10 µM [11, 23] [%] | viability at 10 µM [12, 24] [%] | viability at 10 µM [1, 25] [%] | viability at 10 µM [3, 26] [%] | viability at 10 µM [4, 27] [%] | viability at 10 µM [12, 28] [%] | viability at 10 µM [5, 29] [%] | viability at 10 µM [6, 30] [%] | viability at 10 µM [7, 31] [%] | viability at 10 µM [8, 32] [%] | further results
1 | CCCc1nc(C)c2c(=O)[nH]c(-c3cc(S(=O)(=O)N4CCN(CC)CC4)ccc3OCC)nn12 [Vardenafil (Vivanza), Vardenafil] | 68.2 | 106 | 81.8 | 73.2 | 96.5 | 57.8 | 127 | 61.7 | 117 | 86.5 | 67.2 | – | – | – | – | – | – | – | – | – | –
2 | CC[C@H]1OC(=O)[C@H](C)[C@@H](O[C@H]2C[C@@](C)(OC)[C@@H](O)[C@H](C)O2)[C@H](C)[C@@H](O[C@@H]2O[C@H](C)C[C@H](N(C)C)[C@H]2O)[C@](C)(O)C[C@@H](C)[C@@H]2N[C@@H](COCCOC)O[C@H]([C@H]2C)[C@]1(C)O [Dirithromycin] | 106 | 83.7 | 90.6 | 83.7 | 64.8 | 77.2 | 90.2 | 91.9 | 62.6 | 63.2 | 65.5 | 77.1 | – | – | – | – | – | – | – | – | –
3 | CCC[C@@H]1C[C@@H](C(=O)N[C@@H]([C@H]2O[C@H](SC)[C@H](OP(=O)(O)O)[C@@H](O)[C@H]2O)[C@H](C)Cl)N(C)C1 [Clindamycin phosphate] | 85.6 | 44.4 | 90.2 | 81.3 | 31 | 79.6 | 110 | 61.4 | 38.3 | 91.6 | 87 | 40 | – | – | – | – | – | – | – | – | –
4 | NC(=O)c1cnccn1 [Pyrazinamide] | – | 56.9 | – | – | – | – | – | – | – | – | – | – | 53.6 | 88.1 | 58.6 | 100 | 33.9 | 88.3 | 106 | 54.3 | viability at 10 µM [9, 33]: 40.9%; viability at 10 µM [10, 34]: 74.9%; viability at 10 µM [11, 35]: 79.1%
5 | Cc1ccccc1C(OCCN(C)C)c1ccccc1 (stereo not drawn) [Orphenadrine citrate (Norflex), Orphenadrine citrate] | 102 | 45.6 | 97.8 | 89.2 | 21.8 | 53.4 | 92.9 | 67.9 | 35.9 | 82.9 | 99.6 | 41.6 | – | – | – | – | – | – | – | – | –
6 | CN(C/C=C/C#CC(C)(C)C)Cc1cccc2ccccc12 [Terbinafine (Lamisil, Terbinex), Terbinafine] | – | 94 | – | – | – | – | – | – | – | – | – | – | 143 | 98.3 | 99.7 | 140 | 115 | 109 | 95.2 | 65.2 | viability at 10 µM [9, 33]: 104%; viability at 10 µM [10, 34]: 137%; viability at 10 µM [11, 35]: 104%
7 | C=CC1=C(C(=O)O)N2C(=O)[C@@H](NC(=O)/C(=N\O)c3csc(N)n3)[C@H]2SC1 [Cefdinir (Omnicef), Cefdinir] | 70.5 | 111 | 106 | 92.5 | 97 | 35.6 | 104 | 86.4 | 55.1 | 79.1 | 93.6 | 135 | – | – | – | – | – | – | – | – | –
8 | O=C([O-])[C@H](O)[C@@H](O)[C@H](O)[C@H](O)CO.[Na+] [Sodium Gluconate] | – | – | – | – | – | – | – | – | – | – | – | – | – | – | – | – | – | – | – | – | viability at 10 µM ([1]; MKN-45, drug 10 μM, 72 hours, WST-1, OD450 nm, read-out: cell viability (survival rate), MKN-45): 93%; viability at 10 µM ([2]; drug 10 μM, 72 hours, WST-1, OD450 nm, read-out: cell viability (survival rate), LoVo): 100%; viability at 10 µM ([3]; HepG2, drug 10 μM, 72 hours, WST-1, OD450 nm, read-out: cell viability (survival rate), HepG2): 95.3%; viability at 10 µM ([4]; A-375, drug 10 μM, 72 hours, WST-1, OD450 nm, read-out: cell viability (survival rate), A375): 116%; viability at 10 µM ([5]; A549, drug 10 μM, 72 hours, WST-1, OD450 nm, read-out: cell viability (survival rate), A549): 91.9%; viability at 10 µM ([6]; drug 10 μM, 72 hours, WST-1, OD450 nm, read-out: cell viability (survival rate), TSGH): 97.4%; viability at 10 µM ([7]; HL-60, drug 10 μM, 72 hours, WST-1, OD450 nm, read-out: cell viability (survival rate), HL-60): 91.2%; viability at 10 µM ([8]; drug 10 μM, 72 hours, WST-1, OD450 nm, read-out: cell viability (survival rate), HeLa): 73%; viability at 10 µM ([9]; MCF7, drug 10 μM, 72 hours, WST-1, OD450 nm, read-out: cell viability (survival rate), MCF7): 94.7%; viability at 10 µM ([10]; drug 10 μM, 72 hours, WST-1, OD450 nm, read-out: cell viability (survival rate), AGS): 90.8%; viability at 10 µM ([11]; NCI-H1650, drug 10 μM, 72 hours, WST-1, OD450 nm, read-out: cell viability (survival rate), H1650): 94.6%
9 | CC(=O)[C@@]1(O)CC[C@H]2[C@@H]3CCC4=CC(=O)CCC4=C3[C@@H](c3ccc(N(C)C)cc3)C[C@@]21C [Ulipristal] | – | 67.8 | – | – | – | – | – | – | – | – | – | – | 36.1 | 69 | 48.2 | 49.3 | 59.9 | 55.8 | 93.8 | 72.4 | viability at 10 µM [9, 33]: 65.4%; viability at 10 µM [10, 34]: 55.4%; viability at 10 µM [11, 35]: 40.3%
10 | Nc1nccs1 [Aminothiazole] | – | 86.4 | 90.4 | 78.4 | 56.1 | 86 | 121 | 65.7 | 108 | 62.3 | 68.7 | 93.8 | – | – | – | – | – | – | – | – | –
11 | Fc1ccc([C@@H]2CCNC[C@H]2COc2ccc3c(c2)OCO3)cc1 [paroxetine] | – | – | – | – | – | – | – | – | – | – | – | – | – | – | – | – | – | – | – | – | viability at 10 µM ([6]; 72 h, read-out: The results of antibiotic drug inhibiting cancer cell lines (cell viability analysis), TSGH-8301, TSGH-8301, repeated experiment): 38.4%
12 | Cc1cc(=O)[nH]c(=S)[nH]1 [Methylthiouracil] | – | 98.9 | – | – | – | – | – | – | – | – | – | – | 79.9 | 106 | 72.1 | 151 | 164 | 83.6 | 106 | 88.3 | viability at 10 µM [10, 34]: 84.8%; viability at 10 µM [11, 35]: 90.2%
